Source: publication PMC11022890 (Drug Metabolism and Disposition, 2021)

How the values were obtained:
[1] = biological target: T1, UGT1A9 (Homo sapiens, UniProt O60656); experiment: in vitro; conditions: both, HLM
T1 sequence (O60656 26-530): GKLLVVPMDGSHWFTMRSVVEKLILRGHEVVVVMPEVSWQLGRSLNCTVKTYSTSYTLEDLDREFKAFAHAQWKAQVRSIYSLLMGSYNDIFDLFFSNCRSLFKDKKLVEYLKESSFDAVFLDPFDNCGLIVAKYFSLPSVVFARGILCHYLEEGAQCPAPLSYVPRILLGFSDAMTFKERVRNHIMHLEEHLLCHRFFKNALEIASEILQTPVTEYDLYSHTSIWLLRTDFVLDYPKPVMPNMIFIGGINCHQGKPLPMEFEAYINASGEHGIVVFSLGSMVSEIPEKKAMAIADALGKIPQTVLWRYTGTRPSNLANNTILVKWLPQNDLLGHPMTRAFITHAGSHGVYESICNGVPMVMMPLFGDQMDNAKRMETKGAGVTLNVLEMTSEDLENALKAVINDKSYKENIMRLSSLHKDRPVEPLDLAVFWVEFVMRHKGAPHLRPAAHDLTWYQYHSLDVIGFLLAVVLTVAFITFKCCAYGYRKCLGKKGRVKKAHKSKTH

[2] = biological target: T2, UGT2B17 (Homo sapiens, UniProt O75795); assay type: in vitro ADME; conditions: 100 µM; rUGT2B17 microsomes; dihydroexemestane; screening
T2 sequence (O75795 24-530): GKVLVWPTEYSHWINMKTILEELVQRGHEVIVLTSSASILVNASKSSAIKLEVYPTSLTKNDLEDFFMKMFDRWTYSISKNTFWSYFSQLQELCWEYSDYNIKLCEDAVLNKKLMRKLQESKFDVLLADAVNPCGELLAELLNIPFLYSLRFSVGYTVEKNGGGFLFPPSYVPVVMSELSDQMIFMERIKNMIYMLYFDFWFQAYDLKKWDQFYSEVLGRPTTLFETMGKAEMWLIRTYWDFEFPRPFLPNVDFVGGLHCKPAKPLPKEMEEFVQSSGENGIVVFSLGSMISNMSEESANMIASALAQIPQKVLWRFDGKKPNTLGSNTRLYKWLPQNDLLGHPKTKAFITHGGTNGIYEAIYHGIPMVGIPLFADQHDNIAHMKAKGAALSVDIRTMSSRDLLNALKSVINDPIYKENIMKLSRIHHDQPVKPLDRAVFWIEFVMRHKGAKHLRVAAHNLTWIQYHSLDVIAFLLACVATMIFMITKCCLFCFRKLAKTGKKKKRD

[3] = biological target: T3, UGT2B4 (Homo sapiens, UniProt P06133); experiment: Inhibition of codeine glucuronidation in rUGT2B4 microsomes; assay type: in vitro ADME
T3 sequence (P06133 24-528): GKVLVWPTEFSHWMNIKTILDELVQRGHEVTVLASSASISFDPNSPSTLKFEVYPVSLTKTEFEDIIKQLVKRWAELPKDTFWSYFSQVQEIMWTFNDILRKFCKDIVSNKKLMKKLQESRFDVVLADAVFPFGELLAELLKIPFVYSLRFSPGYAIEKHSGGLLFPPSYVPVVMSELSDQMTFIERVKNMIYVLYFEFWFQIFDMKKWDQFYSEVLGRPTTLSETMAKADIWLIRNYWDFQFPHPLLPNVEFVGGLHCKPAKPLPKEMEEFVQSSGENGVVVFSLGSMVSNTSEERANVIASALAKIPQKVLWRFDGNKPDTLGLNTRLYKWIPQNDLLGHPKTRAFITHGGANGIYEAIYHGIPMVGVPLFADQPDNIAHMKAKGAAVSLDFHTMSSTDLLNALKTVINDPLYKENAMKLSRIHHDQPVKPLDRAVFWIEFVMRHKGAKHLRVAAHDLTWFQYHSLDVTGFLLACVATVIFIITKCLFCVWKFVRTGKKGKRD

[4] = biological target: T4, UGT1A1 (Homo sapiens, UniProt P22309); experiment: Screening: inhibition of β-estradiol glucuronidation in rUGT1A1 microsomes; assay type: in vitro ADME; conditions: 10 or 100 µM
T4 sequence (P22309 26-533): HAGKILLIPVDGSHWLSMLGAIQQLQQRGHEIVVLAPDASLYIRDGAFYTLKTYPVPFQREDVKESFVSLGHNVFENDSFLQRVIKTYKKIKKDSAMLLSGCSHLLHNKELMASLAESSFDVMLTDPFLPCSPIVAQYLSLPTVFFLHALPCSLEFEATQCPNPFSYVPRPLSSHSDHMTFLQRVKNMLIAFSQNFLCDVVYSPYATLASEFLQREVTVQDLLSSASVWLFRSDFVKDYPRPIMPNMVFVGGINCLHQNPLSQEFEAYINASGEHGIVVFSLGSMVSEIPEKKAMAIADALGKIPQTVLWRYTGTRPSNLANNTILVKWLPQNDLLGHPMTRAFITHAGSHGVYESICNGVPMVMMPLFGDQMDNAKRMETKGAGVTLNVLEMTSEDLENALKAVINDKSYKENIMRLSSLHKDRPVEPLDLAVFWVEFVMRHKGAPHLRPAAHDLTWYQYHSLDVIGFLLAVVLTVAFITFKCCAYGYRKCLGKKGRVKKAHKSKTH

[5] = biological target: T1, UGT1A9; experiment: Inhibition of acetaminophen glucuronidation in rUGT1A9 microsomes; assay type: in vitro ADME; conditions: IC50, probe substrate acetaminophen
[6] = biological target: T1, UGT1A9; experiment: Inhibition of propofol glucuronidation in rUGT1A9 microsomes; assay type: in vitro ADME
[7] = biological target: T5, UGT1A9 in human kidney microsomes (Homo sapiens, UniProt O60656); experiment: Inhibition of acetaminophen glucuronidation; conditions: HKM
T5 sequence (O60656 26-530): T1 sequence (O60656 26-530)

[8] = biological target: T1, UGT1A9; experiment: Inhibition of furosemide glucuronidation in rUGT1A9 microsomes; assay type: in vitro ADME
[9] = IC50, probe substrate furosemide
[10] = IC50,u (binding-corrected IC50), probe substrate furosemide
[11] = IC50,u (binding-corrected IC50), probe substrate propofol
[12] = IC50, probe substrate acetaminophen
[13] = IC50,u (binding-corrected IC50), probe substrate acetaminophen

| Compound | IC50 [1, 9] [µM] | IC50 [1, 10] [µM] | inhibition vs control without cannabinoid [2] [%] | inhibition vs control without cannabinoid ([3]; 10 µM, codeine, screening) [%] | IC50 ([3]; IC50, probe substrate codeine) [µM] | IC50 ([3]; IC50,u (binding-corrected IC50), probe substrate codeine) [µM] | inhibition in screening (in words) [4] | IC50 [5] [µM] | inhibition vs control without cannabinoid ([6]; 10 µM, propofol, screening) [%] | IC50 ([6]; IC50, probe substrate propofol) [µM] | IC50 [6, 11] [µM] | IC50 [7, 12] [µM] | IC50 [7, 13] [µM] | IC50 [8, 9] [µM] | IC50 [8, 10] [µM] | inhibition in screening (in words) ([3]; 10 or 100 µM) | inhibition in screening (in words) ([6]; 10 or 100 µM) |
| --- | --- | --- | --- | --- | --- | --- | --- | --- | --- | --- | --- | --- | --- | --- | --- | --- | --- |
| C=C(C)[C@@H]1CCC(C)=C[C@H]1c1c(O)cc(CCCCC)cc1O [CBD, cannabidiol] | 29 ± 4 | 1.5 ± 0.2 | 43 | 66 | 5.8 ± 1.2 | 0.22 ± 0.045 | no significant inhibition | 1.9 ± 0.29 | 91 | 3.2 ± 0.52 | 0.12 ± 0.02 | 3.8 ± 0.82 | 0.24 ± 0.05 | 2.4 ± 0.66 | 0.09 ± 0.025 | – | – |
| CCCCCc1cc(O)c2c(c1)OC(C)(C)c1ccc(C)cc1-2 [CBN, cannabinol] | 30 ± 4.5 | 2.8 ± 0.96 | 34 | – | – | – | no significant inhibition | 6.9 ± 0.54 | – | 6 ± 0.75 | 0.51 ± 0.063 | 21 ± 3.4 | 2.6 ± 0.41 | 9.2 ± 2.1 | 0.78 ± 0.18 | significant inhibition was not observed | significant inhibition |
